Laboratory results: patent US10294202B2, “Pyrrolidinones as herbicides” (FMC Corporation, priority 2013, dated 2019)

Legend:
velvetleaf = experiment: Test A pre-/postemergence herbicide test; type: in vivo, Abutilon theophrasti
Method in brief: (§1)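 Seeds in loam–sand blend received preemergence directed soil spray; separately, plants 2–10 cm at one- to two-leaf stage received postemergence spray, both with test chemicals in non-phytotoxic solvent with surfactant. After ~10 days in greenhouse, injury rated visually against untreated controls, 0 (no effect) to 100 (complete control).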

morningglory = experiment: Test A pre-/postemergence herbicide test; type: in vivo, Ipomoea spp.
Method in brief: as §1

barnyardgrass [1] = experiment: Test C flooded paddy test; type: in vivo, Echinochloa crus-galli; conditions: Flood
Excerpt: (§2) Plant species in the flooded paddy test consisted of rice (Oryza sativa), sedge, umbrella (small-flower umbrella sedge, Cyperus difformis), ducksalad (Heteranthera limosa), and barnyardgrass (Echinochloa crus-galli) grown to the 2-leaf stage for testing. At time of treatment, test pots were flooded to 3 cm above the soil surface, treated by application of test compounds directly to the paddy water, and then maintained at that water depth for the duration of the test. Treated plants and controls were maintained in a greenhouse for 13 to 15 days, after which time all species were compared to controls and visually evaluated. Plant response ratings, summarized in Table C, are based on a scale of 0 to 100 where 0 is no effect and 100 is complete control. A dash (-) response means no test result.

sedge, umbrella = experiment: Test C flooded paddy test; type: in vivo, Cyperus difformis; conditions: Flood
Excerpt: as §2

giant foxtail = experiment: Test A pre-/postemergence herbicide test; type: in vivo, Setaria faberii
Method in brief: as §1

ducksalad = experiment: Test C flooded paddy test; type: in vivo, Heteranthera limosa; conditions: Flood
Method in brief: (§3)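 2-leaf stage; flood 3 cm over soil; compound into paddy water; depth held; greenhouse 13–15 d; visual % control vs untreated (0 = none, 100 = complete); "-" = not tested.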

barnyardgrass [2] = experiment: Test A pre-/postemergence herbicide test; type: in vivo, Echinochloa crus-galli
Method in brief: as §1

wheat = experiment: Test A pre-/postemergence herbicide test; type: in vivo, Triticum aestivum
Method in brief: as §1

rice = experiment: Test C flooded paddy test; type: in vivo, Oryza sativa; conditions: Flood
Method in brief: as §3

pigweed = experiment: Test A pre-/postemergence herbicide test; type: in vivo, Amaranthus retroflexus
Method in brief: as §1

corn = experiment: Test A pre-/postemergence herbicide test; type: in vivo, Zea mays
Method in brief: as §1

crabgrass, large = experiment: Test A pre-/postemergence herbicide test; type: in vivo, Digitaria sanguinalis
Method in brief: as §1

[3] = Postemergence, 1000 g ai/ha, 0 to 100 scale (0 no effect, 100 complete control)
[4] = Preemergence, 1000 g ai/ha, visual rating on 0 to 100 scale (0 no effect, 100 complete control), approx. 10 days
[5] = 62 g ai/ha, scale of 0 to 100 where 0 is no effect and 100 is complete control, 13 to 15 days
[6] = Postemergence, 125 g ai/ha, 0 to 100 scale, 0 no effect, 100 complete control
[7] = Postemergence, 500 g ai/ha, 0 to 100 scale (0 no effect, 100 complete control)
[8] = Preemergence, 125 g ai/ha, visual rating on 0 to 100 scale (0 no effect, 100 complete control)
[9] = preemergence, 500 g ai/ha, 0 to 100 scale
[10] = 31 g ai/ha, scale of 0 to 100 where 0 is no effect and 100 is complete control, 13 to 15 days
[11] = 125 g ai/ha, scale of 0 to 100 where 0 is no effect and 100 is complete control, 13 to 15 days
[12] = 125 g ai/ha, visual rating, 0 to 100 scale, 0 no effect, 100 complete control, approximately 10 days, preemergence
[13] = Postemergence, 125 g ai/ha, 0 to 100 scale, 0 is no effect, 100 is complete control
[14] = preemergence, 500 g ai/ha, 0 to 100 scale, 0 is no effect and 100 is complete control
[15] = 250 g ai/ha, scale of 0 to 100 where 0 is no effect and 100 is complete control, 13 to 15 days

## O=C1NCC(c2ccc(Cl)c(Cl)c2)C1C(=O)Nc1cccc(F)c1F (racemic) [Compound 25]
velvetleaf; [3]
  Plant response rating, Velvetleaf: 10
velvetleaf; [4]
  Plant response rating, Velvetleaf: 0
morningglory; [3]
  Plant response rating, Morningglory: 10
morningglory; [4]
  Plant response rating, Morningglory: 0
Barnyardgrass [1]; [5]
  Plant response rating, Barnyardgrass: 0
Barnyardgrass [1]; 250 g ai/ha, scale 0 to 100
  Plant response rating, Barnyardgrass: 0
sedge, umbrella; [5]
  Plant response rating, Sedge, Umbrella: 0
sedge, umbrella; 250 g ai/ha, scale 0 to 100
  Plant response rating, Sedge, Umbrella: 0
Giant foxtail; [3]
  Plant response rating, Foxtail, Giant: 90
Giant foxtail; [4]
  Plant response rating, Foxtail, Giant: 90
ducksalad; [5]
  Plant response rating, Ducksalad: 0
ducksalad; 250 g ai/ha, scale 0 to 100
  Plant response rating, Ducksalad: 60
Barnyardgrass [2]; [3]
  Plant response rating, Barnyardgrass: 80
Barnyardgrass [2]; [4]
  Plant response rating, Barnyardgrass: 80
wheat; [3]
  Plant response rating, Wheat: 0
wheat; [4]
  Plant response rating, Wheat: 0
rice; [5]
  Plant response rating, Rice: 0
rice; 250 g ai/ha, scale 0 to 100
  Plant response rating, Rice: 0
pigweed; [3]
  Plant response rating, Pigweed: 0
pigweed; [4]
  Plant response rating, Pigweed: 0
corn; [3]
  Plant response rating, Corn: 0
corn; [4]
  Plant response rating, Corn: 0
crabgrass, large; [3]
  Plant response rating, Crabgrass, Large: 80
crabgrass, large; [4]
  Plant response rating, Crabgrass, Large: 90

## O=C1NCC(c2ccsc2)C1C(=O)Nc1ccccc1F (racemic) [Compound 29]
velvetleaf; [6]
  Plant response rating, Velvetleaf: 0
velvetleaf; [7]
  Plant response rating, Velvetleaf: 0
velvetleaf; [8]
  Velvetleaf plant response rating: 0
velvetleaf; [9]
  Plant response rating, Velvetleaf: 0
morningglory; [6]
  Plant response rating, Morningglory: 0
morningglory; [7]
  Plant response rating, Morningglory: 0
morningglory; [8]
  Morningglory plant response rating: 0
morningglory; [9]
  Plant response rating, Morningglory: 0
Barnyardgrass [1]; [10]
  Plant response rating, Barnyardgrass: 0
Barnyardgrass [1]; [5]
  Plant response rating, Barnyardgrass: 0
Barnyardgrass [1]; [11]
  Plant response rating, Barnyardgrass: 0
Barnyardgrass [1]; 250 g ai/ha, scale 0 to 100
  Plant response rating, Barnyardgrass: 0
sedge, umbrella; [10]
  Plant response rating, Sedge, Umbrella: 0
sedge, umbrella; [5]
  Plant response rating, Sedge, Umbrella: 0
sedge, umbrella; [11]
  Plant response rating, Sedge, Umbrella: 0
sedge, umbrella; 250 g ai/ha, scale 0 to 100
  Plant response rating, Sedge, Umbrella: 0
Giant foxtail; [6]
  Plant response rating, Foxtail, Giant: 0
Giant foxtail; [7]
  Plant response rating, Foxtail, Giant: 0
Giant foxtail; [8]
  Foxtail, Giant plant response rating: 0
Giant foxtail; [9]
  Plant response rating, Foxtail, Giant: 0
ducksalad; [10]
  Plant response rating, Ducksalad: 0
ducksalad; [5]
  Plant response rating, Ducksalad: 0
ducksalad; [11]
  Plant response rating, Ducksalad: 0
ducksalad; 250 g ai/ha, scale 0 to 100
  Plant response rating, Ducksalad: 40
Barnyardgrass [2]; [6]
  Plant response rating, Barnyardgrass: 0
Barnyardgrass [2]; [7]
  Plant response rating, Barnyardgrass: 0
Barnyardgrass [2]; [8]
  Barnyardgrass plant response rating: 0
Barnyardgrass [2]; preemergence, 500 g ai/ha, 0 to 100 scale (0 no effect, 100 complete control)
  Plant response rating, Barnyardgrass: 50
wheat; [6]
  Plant response rating, Wheat: 0
wheat; [7]
  Plant response rating, Wheat: 0
wheat; [8]
  Wheat plant response rating: 0
wheat; [9]
  Plant response rating, Wheat: 0
rice; [10]
  Plant response rating, Rice: 0
rice; [5]
  Plant response rating, Rice: 0
rice; [11]
  Plant response rating, Rice: 0
rice; 250 g ai/ha, scale 0 to 100
  Plant response rating, Rice: 0
pigweed; [6]
  Plant response rating, Pigweed: 0
pigweed; [7]
  Plant response rating, Pigweed: 0
pigweed; [8]
  Pigweed plant response rating: 0
pigweed; [9]
  Plant response rating, Pigweed: 0
corn; [6]
  Plant response rating, Corn: 0
corn; [7]
  Plant response rating, Corn: 0
corn; [8]
  Corn plant response rating: 0
corn; [9]
  Plant response rating, Corn: 0
crabgrass, large; [6]
  Plant response rating, Crabgrass, Large: 0
crabgrass, large; [7]
  Plant response rating, Crabgrass, Large: 0
crabgrass, large; [8]
  Crabgrass, Large plant response rating: 30
crabgrass, large; [9]
  Plant response rating, Crabgrass, Large: 70

## O=C1NCC(c2cccc(C(F)(F)F)c2)C1C(=O)Nc1ccccc1Br (racemic) [Compound 190]
velvetleaf; [12]
  Plant response rating, Velvetleaf: 0
velvetleaf; [13]
  Plant response rating, Velvetleaf: 0
velvetleaf; Postemergence, 500 g ai/ha
  Velvetleaf plant response rating (0 to 100 scale, 0 is no effect, 100 is complete control): 10
velvetleaf; [14]
  Plant response rating, Velvetleaf: 0
morningglory; [12]
  Plant response rating, Morningglory: 0
morningglory; [13]
  Plant response rating, Morningglory: 0
morningglory; Postemergence, 500 g ai/ha
  Morningglory plant response rating (0 to 100 scale, 0 is no effect, 100 is complete control): 10
morningglory; [14]
  Plant response rating, Morningglory: 0
Barnyardgrass [1]; [11]
  Plant response rating, Barnyardgrass: 10
Barnyardgrass [1]; [15]
  Plant response rating, Barnyardgrass: 25
Barnyardgrass [1]; 500 g ai/ha, scale 0 to 100
  Plant response rating, Barnyardgrass: 50
Barnyardgrass [1]; 1000 g ai/ha, scale 0 to 100
  Plant response rating, Barnyardgrass: 65
sedge, umbrella; [11]
  Plant response rating, Sedge, Umbrella: 0
sedge, umbrella; [15]
  Plant response rating, Sedge, Umbrella: 0
sedge, umbrella; 500 g ai/ha, scale 0 to 100
  Plant response rating, Sedge, Umbrella: 0
sedge, umbrella; 1000 g ai/ha, scale 0 to 100
  Plant response rating, Sedge, Umbrella: 0
Giant foxtail; [12]
  Plant response rating, Foxtail, Giant: 80
Giant foxtail; [13]
  Plant response rating, Foxtail, Giant: 70
Giant foxtail; Postemergence, 500 g ai/ha
  Foxtail, Giant plant response rating (0 to 100 scale, 0 is no effect, 100 is complete control): 80
Giant foxtail; [14]
  Plant response rating, Foxtail, Giant: 90
ducksalad; [11]
  Plant response rating, Ducksalad: 50
ducksalad; [15]
  Plant response rating, Ducksalad: 75
ducksalad; 500 g ai/ha, scale 0 to 100
  Plant response rating, Ducksalad: 85
ducksalad; 1000 g ai/ha, scale 0 to 100
  Plant response rating, Ducksalad: 100
Barnyardgrass [2]; [12]
  Plant response rating, Barnyardgrass: 60
Barnyardgrass [2]; [13]
  Plant response rating, Barnyardgrass: 70
Barnyardgrass [2]; Postemergence, 500 g ai/ha
  Barnyardgrass plant response rating (0 to 100 scale, 0 is no effect, 100 is complete control): 90
Barnyardgrass [2]; [14]
  Plant response rating, Barnyardgrass: 90
wheat; [12]
  Plant response rating, Wheat: 0
wheat; [13]
  Plant response rating, Wheat: 0
wheat; Postemergence, 500 g ai/ha
  Wheat plant response rating (0 to 100 scale, 0 is no effect, 100 is complete control): 0
wheat; [14]
  Plant response rating, Wheat: 30
rice; [11]
  Plant response rating, Rice: 0
rice; [15]
  Plant response rating, Rice: 0
rice; 500 g ai/ha, scale 0 to 100
  Plant response rating, Rice: 0
rice; 1000 g ai/ha, scale 0 to 100
  Plant response rating, Rice: 15
pigweed; [12]
  Plant response rating, Pigweed: 0
pigweed; [13]
  Plant response rating, Pigweed: 0
pigweed; Postemergence, 500 g ai/ha
  Pigweed plant response rating (0 to 100 scale, 0 is no effect, 100 is complete control): 0
pigweed; [14]
  Plant response rating, Pigweed: 0
corn; [12]
  Plant response rating, Corn: 0
corn; [13]
  Plant response rating, Corn: 0
corn; Postemergence, 500 g ai/ha
  Corn plant response rating (0 to 100 scale, 0 is no effect, 100 is complete control): 40
corn; [14]
  Plant response rating, Corn: 0
crabgrass, large; [12]
  Plant response rating, Crabgrass, Large: 90
crabgrass, large; [13]
  Plant response rating, Crabgrass, Large: 70
crabgrass, large; Postemergence, 500 g ai/ha
  Crabgrass, Large plant response rating (0 to 100 scale, 0 is no effect, 100 is complete control): 90
crabgrass, large; [14]
  Plant response rating, Crabgrass, Large: 90
